According to US20200289609A1, “PEPTIDOMIMETIC MACROCYCLES AND USES THEREOF” (Aileron Therapeutics, Inc., priority 2019, published 2020):

Columns and labels:
RKO = assay: Cell viability assay (MTT), RKO; format: cell-based; conditions: read-out: RKO EC50 (72 h), RKO cells
Procedure: Row H of the plate contained the controls. Wells H1-H3 received 20 μL of assay media.
Further dilutions were used for potent peptides.
80 µL of assay media was removed from each well. […] Cell viability was analyzed against the DMSO controls.

H69 xenograft tumors = assay: Anti-tumor activity of topotecan with AP-1, H69 model; format: in vivo, nu/nu mice; conditions: H69, topotecan days 1-5, FIG. 17B
Procedure: (§1) C57BL/6 mice bearing established syngeneic MC38 colon cancer tumors, or nu/nu mice bearing established H69 or H211 xenograft tumors were treated with topotecan on days 1-5 and either AP-1 or vehicle on days 0-4. Median tumor volume and mouse survival was assessed.

H211 xenograft tumors = assay: Anti-tumor activity of topotecan with AP-1, H211 model; format: in vivo, nu/nu mice; conditions: H211, topotecan days 1-5, FIG. 17C
Procedure: as §1

gut tissue = assay: Topotecan-induced mucositis (gut histopathology); format: in vivo, C57BL/6 mice; conditions: Group 3: […] topotecan days 2-6, 10 mice
Procedure: The effect of a peptidomimetic macrocycle of the disclosure on topotecan-induced mucositis is assessed in a controlled, in vivo study. Four groups of mice (10 mice per group) are involved in the study, and administration of agents occurs over a 6-day treatment period. The first group of mice (Group 1) is treated with a vehicle control on days 2, 3, 4, 5, and 6 of the treatment period. The second group of mice (Group 2) is treated intravenously with 2.4 mg/kg of a peptidomimetic macrocycle on days 1, 2, 3, 4, and 5 of a 6-day treatment period. The third group of mice (Group 3) is treated with 1.5 mg/kg of topotecan on days 2, 3, 4, 5, and 6 of the 6-day treatment period. The fourth group of mice (Group 4) is treated with 2.4 mg/kg of the peptidomimetic macrocycle on days 1, 2, 3, 4, and 5 of the 6-day treatment period and 1.5 mg/kg of topotecan on days 2, 3, 4, 5, and 6 of the 6-day treatment period. Gut samples are then taken from mice on days 7 and 9 post treatment. Histopathology analysis of gut samples is performed to assess hypertrophy/hyperplasia. In some embodiments, all gut samples from mice in Groups 1 and 2 receive a hypertrophy/hyperplasia score of 0. […]
C57BL/6 mice (n=10 per group) were divided into four treatment groups. […] Images and gut tissues and quantification of pathology scores can be seen in FIG. 24A.

MC38 colon cancer tumors = assay: Anti-tumor activity of topotecan with AP-1, MC38 model; format: in vivo, C57BL/6 mice; conditions: MC38, topotecan days 1-5, FIG. 17A
Procedure: as §1

MDM2 = MDM2 (Homo sapiens, UniProt Q00987); assay: Competitive fluorescence polarization assay for MDM2; format: binding
Procedure: 1 mM of FAM-labeled linear peptide (in 100% DMSO) was diluted to 100 μM with DMSO (dilution 1:10). Then, diluted solution was further diluted from 100 μM to 10 μM with water (dilution 1:10), and diluted again with FP buffer from 10 μM to 40 nM (dilution 1:250). […] The diluted FAM-labeled peptides were kept in the dark until use.
Unlabeled peptide dose plates were prepared with FP buffer starting with 1 μM (final) of the peptide. […] 10 mM of the solution (in 100% DMSO) with DMSO to 5 mM (dilution 1:2); dilution from 5 mM to 500 μM with H2O (dilution 1:10); and dilution with FP buffer from 500 μM to 20 μM (dilution 1:25). […] 10 μl of 10 nM (4×) of FAM-labeled peptide was added into each well, and the wells were incubated for 3 h before being read.

MDMX = target: T1, MDMX (Homo sapiens, UniProt O15151); assay: Competitive fluorescence polarization assay for MDMX; format: binding
T1 sequence (O15151 1-125): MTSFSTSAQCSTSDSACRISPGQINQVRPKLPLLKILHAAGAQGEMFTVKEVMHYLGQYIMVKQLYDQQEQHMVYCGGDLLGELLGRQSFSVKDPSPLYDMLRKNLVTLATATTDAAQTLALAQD
Procedure: MDMX (40 kD) was diluted into FP buffer (high-salt buffer 200 mM NaCl, 5 mM CHAPS, pH 7.5) to make a 300 nM (2×) working stock solution. 20 μl of the 300 nM (2×) of protein stock solution was added into each well of 96-well black microplate. 1 mM (in 100% DMSO) of a FAM-labeled linear peptide was diluted with DMSO to a concentration of 100 μM (dilution 1:10). The solution was diluted from 100 μM to 10 μM with water (dilution 1:10), and diluted further with FP buffer from 10 μM to 40 nM (dilution 1:250). […] The diluted FAM-labeled peptide was kept in the dark until use. An unlabeled peptide dose plate was prepared with FP buffer starting with a concentration of 5 μM (final) of a peptide. […] 10 mM (in 100% DMSO) of the solution was diluted with DMSO to prepare a 5 mM (dilution 1:2) solution. The solution was diluted from 5 mM to 500 μM with H2O (dilution 1:10), and diluted further with FP buffer from 500 μM to 20 μM (dilution 1:25). […] 10 μl of the serially diluted unlabeled peptides were added to each well, which was filled with 20 μl of the 300 nM protein solution. 10 μl of the 10 nM (4×) FAM-labeled peptide solution was added into each well, and the wells were incubated for 3 h before reading.

Chain of MDM2 (Q00987 1-125): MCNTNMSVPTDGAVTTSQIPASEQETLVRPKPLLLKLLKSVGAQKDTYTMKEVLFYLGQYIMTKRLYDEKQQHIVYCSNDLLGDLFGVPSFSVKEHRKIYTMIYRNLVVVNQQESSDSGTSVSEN

CC(=O)N[C@@H](CC(C)C)C(=O)N[C@H](C(=O)N[C@@H](Cc1ccccc1)C(=O)N[C@]1(C)CCCCCCC=CCCC[C@@](C)(C(=O)N[C@@H](CO)C(=O)N[C@@H](C)C(=O)N[C@@H](C)C(N)=O)NC(=O)[C@H](C2CCCC2)NC(=O)[C@H](CCC(N)=O)NC(=O)[C@H](C)NC(=O)[C@H](Cc2c[nH]c3ccccc23)NC(=O)[C@H](Cc2ccc(O)cc2)NC(=O)[C@H](CCC(=O)O)NC1=O)[C@@H](C)O (single isomer, unassigned) [compound 150]
EC50 (RKO): 1000 to 30000 nM

CC(C)C[C@H](NC(=O)CN(C)C)C(=O)N[C@H](C(=O)N[C@@H](Cc1ccccc1)C(=O)N[C@]1(C)CCCCCCC=CCCC[C@@](C)(C(=O)N[C@@H](CO)C(=O)N[C@@H](C)C(=O)N[C@@H](C)C(N)=O)NC(=O)[C@H](CC2CCC2)NC(=O)[C@H](CCC(N)=O)NC(=O)[C@H](C)NC(=O)[C@H](Cc2c[nH]c3ccccc23)NC(=O)[C@H](Cc2ccc(O)cc2)NC(=O)[C@H](CCC(=O)O)NC1=O)[C@@H](C)O [compound 435]
EC50 (RKO): 1000 to 30000 nM

CC[C@@]1(O)C(=O)OCc2c1cc1n(c2=O)Cc2cc3c(CN(C)C)c(O)ccc3nc2-1 [topotecan]
survival (H69 xenograft tumors): increased | tumor volumes (H69 xenograft tumors): decreased | survival (H211 xenograft tumors): increased | tumor volumes (H211 xenograft tumors): decreased | mice with hyperplasia/hypertrophy score of 3 (gut tissue): about 70% | mice with hypertrophy/hyperplasia score of 2 (gut tissue): about 30% | survival (MC38 colon cancer tumors): increased | tumor volumes (MC38 colon cancer tumors): decreased

CC(=O)N[C@@H](CC(C)C)C(=O)N[C@H](C(=O)N[C@@H](Cc1ccccc1)C(=O)N[C@]1(C)CCCCCCC=CCCC[C@@](C)(C(=O)N[C@@H](CO)C(=O)N[C@@H](C)C(=O)N[C@@H](C)C(=O)N[C@H](C)C(N)=O)NC(=O)[C@H](CC2CCC2)NC(=O)[C@H](CCC(N)=O)NC(=O)[C@H](C)NC(=O)[C@H](Cc2c[nH]c3ccccc23)NC(=O)[C@H](Cc2ccc(O)cc2)NC(=O)[C@H](CCC(=O)O)NC1=O)[C@@H](C)O (single isomer, unassigned) [compound 353]
EC50 (RKO): 1000 to 30000 nM

CC[C@H](C)[C@H](NC(=O)[C@H](C)NC(=O)[C@H](C)NC(=O)[C@]1(C)CCCC=CCCCCCC[C@@](C)(NC(=O)[C@H](Cc2ccccc2)NC(=O)[C@@H](NC(=O)[C@H](CC(C)C)NC(=O)CN(C)C)[C@@H](C)O)C(=O)N[C@@H](CCC(=O)O)C(=O)N[C@@H](Cc2ccc(C(=O)O)cc2)C(=O)N[C@@H](Cc2c[nH]c3ccccc23)C(=O)N[C@@H](C)C(=O)N[C@@H](CCC(N)=O)C(=O)N[C@@H](CC2CCC2)C(=O)N1)C(=O)N[C@H](C)C(N)=O (single isomer, unassigned) [compound 440]
EC50 (RKO): 1000 to 30000 nM

CC(=O)N[C@@H](CC(C)C)C(=O)N[C@H](C(=O)N[C@@H](Cc1ccccc1)C(=O)N[C@]1(C)CCCCCCC=CCCC[C@@](C)(C(=O)N[C@@H](CO)C(=O)N[C@@H](C)C(=O)N[C@@H](C)C(N)=O)NC(=O)[C@H](CC2CCCCC2)NC(=O)[C@H](CCC(N)=O)NC(=O)[C@H](C)NC(=O)[C@H](Cc2c[nH]c3ccccc23)NC(=O)[C@H](Cc2ccc(O)cc2)NC(=O)[C@H](CCC(=O)O)NC1=O)[C@@H](C)O (single isomer, unassigned) [compound 148]
EC50 (RKO): 1000 to 30000 nM

CC(=O)N[C@@H](C)C(=O)N[C@@H](CC(C)C)C(=O)N[C@H](C(=O)N[C@@H](Cc1ccccc1)C(=O)N[C@]1(C)CCCCCCC=CCCC[C@@](C)(C(=O)N[C@@H](CO)C(=O)N[C@@H](C)C(=O)N[C@@H](C)C(=O)N[C@H](C)C(N)=O)NC(=O)[C@H](CC2CCC2)NC(=O)[C@H](CCC(N)=O)NC(=O)[C@H](C)NC(=O)[C@H](Cc2c[nH]c3ccccc23)NC(=O)[C@H](Cc2ccc(O)cc2)NC(=O)[C@H](CCC(=O)O)NC1=O)[C@@H](C)O (single isomer, unassigned) [compound 355]
EC50 (RKO): 1000 to 30000 nM

CC(=O)N[C@@H](C)C(=O)N[C@@H](C)C(=O)N[C@@H](CC(C)C)C(=O)N[C@H](C(=O)N[C@@H](Cc1ccccc1)C(=O)N[C@]1(C)CCCCCCC=CCCC[C@@](C)(C(=O)N[C@@H](CO)C(=O)N[C@@H](C)C(=O)N[C@@H](C)C(=O)N[C@@H](C)C(=O)N[C@H](C)C(N)=O)NC(=O)[C@H](CC2CCC2)NC(=O)[C@H](CCC(N)=O)NC(=O)[C@H](C)NC(=O)[C@H](Cc2c[nH]c3ccccc23)NC(=O)[C@H](Cc2ccc(O)cc2)NC(=O)[C@H](CCC(=O)O)NC1=O)[C@@H](C)O (single isomer, unassigned) [compound 359]
EC50 (RKO): 1000 to 30000 nM

CC(=O)N[C@@H](CCC(=O)O)C(=O)N[C@H](C(=O)N[C@@H](Cc1ccccc1)C(=O)N[C@]1(C)CCCCCCC=CCCC[C@@](C)(C(=O)N[C@@H](C)C(=O)N[C@@H](C)C(=O)N[C@@H](C)C(=O)N[C@@H](C)C(=O)N[C@@H](C)C(=O)N[C@H](C)C(N)=O)NC(=O)[C@H](CC(C)C)NC(=O)[C@H](CCC(N)=O)NC(=O)[C@H](C)NC(=O)[C@H](Cc2c[nH]c3ccccc23)NC(=O)[C@H](Cc2ccc(O)cc2)NC(=O)[C@H](CCC(=O)O)NC1=O)[C@@H](C)O (single isomer, unassigned) [compound 341]
EC50 (RKO): 1000 to 30000 nM

CCCC[C@H](NC(=O)[C@H](C)NC(=O)[C@H](C)NC(=O)[C@]1(C)CCC/C=C/CCCCCC[C@@](C)(NC(=O)[C@H](Cc2ccccc2)NC(=O)[C@@H](NC(=O)[C@H](CC(C)C)NC(C)=O)[C@@H](C)O)C(=O)N[C@@H](C)C(=O)N[C@@H](Cc2ccc(O)cc2)C(=O)N[C@@](C)(Cc2c[nH]c3ccccc23)C(=O)N[C@@H](C)C(=O)N[C@@H](CCC(N)=O)C(=O)N[C@@H](CC(C)C)C(=O)N1)C(=O)N[C@@H](C)C(N)=O [compound 388]
EC50 (RKO): 1000 to 30000 nM

CC(=O)N[C@@H](C)C(=O)N[C@@H](C)C(=O)N[C@@H](CC(C)C)C(=O)N[C@H](C(=O)N[C@@H](Cc1ccccc1)C(=O)N[C@]1(C)CCCCCCC=CCCC[C@@](C)(C(=O)N[C@@H](CO)C(=O)N[C@@H](C)C(=O)N[C@@H](C)C(=O)N[C@@H](C)C(=O)N[C@H](C)C(N)=O)NC(=O)[C@H](CC2CCC2)NC(=O)[C@H](CCC(N)=O)NC(=O)[C@H](C)NC(=O)[C@H](Cc2c[nH]c3ccccc23)NC(=O)[C@H](Cc2ccc(O)cc2)NC(=O)[C@H](CCC(=O)O)NC1=O)[C@@H](C)O (single isomer, unassigned) [compound 358]
EC50 (RKO): 1000 to 30000 nM

CC(=O)N[C@@H](CC(C)C)C(=O)N[C@H](C(=O)N[C@@H](C)C(=O)N[C@]1(C)CCCCCCC=CCCC[C@@](C)(C(=O)N[C@@H](CO)C(=O)N[C@@H](C)C(=O)N[C@@H](C)C(N)=O)NC(=O)[C@H](CC2CCC2)NC(=O)[C@H](CCC(N)=O)NC(=O)[C@H](C)NC(=O)[C@H](Cc2c[nH]c3ccccc23)NC(=O)[C@H](Cc2ccc(O)cc2)NC(=O)[C@H](CCC(=O)O)NC1=O)[C@@H](C)O (single isomer, unassigned) [compound 252]
IC50 (MDM2): 100 to 1000 nM | Ki (MDM2): 100 to 1000 nM | IC50 (MDMX): > 1000 nM | Ki (MDMX): > 1000 nM
